# Test results published in US4317768A, “Dihydropyridine derivatives as stabilizers for vinyl chloride polymers” (priority 1977, dated 1982).
# “And” between values parts separate entries of the source, which are not always exact repeats. Equal values may be shown once.
# Assays:
# [1] = Static thermostability (GARDNER method), rigid PVC sheets, 210° C., 0.3 part stabilizer
# Procedure, shortened: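 Rigid sheets calendered at 160° C. from powdered PVC resin with 0.3 part by weight stabilizer (dihydropyridine or 2-phenyl-indole reference) plus usual ingredients. Sheets heated in oven at 210° C., removed every three minutes over 21 minutes until incipient carbonization. Coloration scored against GARDNER scale reference figures.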
# [2] = Static thermostability (GARDNER method), rigid PVC sheets, 185° C., 0.3 part stabilizer
# Procedure: (§1) This study was carried out according to the GARDNER method, described in British Pat. No. 1,489,685.
# (§2) The reference substance was 2-phenyl-indole, a well-known and widely used stabilizer.
# (§3) The stabilizer (dihydropyridine or 2-phenyl-indole) and the other usual ingredients were mixed with powdered vinyl resins and the mixtures were calendered at a temperature of 160° C. to give rigid sheets.
# (§4) The sheets were then heated in a thermostated oven (185° C. or 210° C.) for different intervals of time until incipient carbonization.
# (§5) The coloration of the samples was compared to a standard scale of coloration, known as the GARDNER scale and was expressed in terms of the reference figures of the GARDNER scale.
# (§6) This study was carried out with the following resin:
# (§7) Polyvinyl chloride resin
# (§8) SL 2016 is a solution of zinc-2-ethyl-hexanoate in a mixture of hydrocarbons boiling between 158° C. and 184° C.
# A second trial was performed at a temperature of 185° C., with a resin containing 0.3 part of stabilizer, the samples being removed from the oven every 6 minutes over a period of 24 minutes, then every 3 minutes until the 42nd minute (or until carbonization).
# [3] = Static thermostability (GARDNER method), rigid PVC sheets, 185° C., equimolecular quantities; conditions: 1.55×10^-3 mol
# Procedure: as §1, §2, §3, §4, §5, §6, §7, §8
# Finally, a trail was performed at 185° C., with resins containing equimolecular quantities of the dihydropyridines or of 2-phenyl-indole, namely 1.55×10^-3 mol. In this case too, the samples were removed from the oven every 6 minutes over a period of 24 minutes and then every 3 minutes until the 42nd minute (or until carbonization).
# [4] = Colour of the resin after each passage in a blower-extruder
# Procedure: (2) Examination of the colour of the resin after each passage (3 in all) in a blower-extruder, the mould being a 250 ml cylindrical flask.
# Four resins where tested, the first containing 0.2% of 2-phenyl-indole and the others 0.2%, 0.03% and 0.015% of compound 1 respectively.
# [5] = Comparison with 2-phenyl-indole, vinyl chloride-vinyl acetate co-polymer, 185° C.; conditions: 0.3 part
# Procedure: (c) Comparison with 2-phenyl-indole
# A comparative test was made using the following compound:
# The sheets were heated in a ventilated oven at 185° C. and the following results were obtained: […]
# [6] = Comparison with 2-phenyl-indole, vinyl chloride-vinylidene chloride co-polymer, 210° C.; conditions: 0.3 part
# Procedure: A second test was made using the following compound:
# The sheets were heated in a ventilated oven at 210° C. and the following results were obtained: […]
# [7] = Photostabilizing power, PVC plates exposed to the sun, GARDNER scale
# Procedure: (§9) The photostabilizing power of the compounds of the invention was studied by exposing to the sun polyvinyl chloride plates which had been stabilized either by a dihydropyridine of the invention or by 2-phenyl-indole, or again by 2-(3'-methoxy-4'-hydroxy)-indole. This last product is an extremely valuable thermostabilizer for thermoplastic resins and is described in British Pat. No. 1,489,685.
# (§10) The resin given hereunder was prepared by mixing on cylinders at 160° C.:
# (§11) The plates of stabilized polyvinyl chloride, together with a plate which had not been stabilized, were stood in the sun under the same conditions and at the same time. Their colour was measured after 6 hours and 12 hours of exposure.
# (§12) The coloration of the plates was determined according to two methods:
# On the plates themselves, following the GARDNER scale, as in the section on thermostability,
# The sign + means that the coloration lies between the lower unit and the upper half-unit. Thus, 3+ means that the coloration lies between 3 and 3.5. Similarly, the sign - means that the coloration lies between the lower half-unit and the upper unit.
# [8] = Photostabilizing power, sheets exposed to the sun, co-polymer (a)
# Procedure: (§13) The sheets were exposed to the sun and their colorations were also determined according to the GARDNER method.
# [9] = Photostabilizing power, sheets exposed to the sun, rigid co-polymer (b)
# Procedure: as §13
# [10] = Comparison with stabilizer G1, rigid co-polymer, 0.5 part, 185° C.
# From the text: (b) Comparison with stabilizer G1
# Stabilizer G1 is a mixture of 1,4-butanediol-β-aminocrotonate and of β-aminocrotonate of alcohols containing from 16 to 18 carbon atoms.
# [11] = Comparison with stabilizer G1, rigid co-polymer (12.5 to 13.5% of acetate), 0.5 part, 185° C.
# From the text: Another comparison was made with the following rigid co-polymer: […]
# [12] = Comparison with stabilizer G1, 0.1 part, 185° C.
# Procedure: A test was also carried out with the following compound:
# Another test was made with the same resin but containing 0.1 part of stabilizer.
# [13] = Photostabilizing power, tetrahydrofuran solution of plates exposed to the sun, French Pharmacopeia
# Procedure: as §9, §10, §11, §12
# On a solution of these plates in tetrahydrofuran, the coloration of th solution being measured according to the French Pharmacopeia (IXth edition, II-338).
# [14] = Polarographic study of the oxidation potential; assay type: physicochemical; conditions: acetonitrile, 0.1 M lithium perchlorate, vitrous carbon electrode, calomel reference
# From the text: By a polarographic study of their oxidation potential, compared to well-known antioxidants such as 2,6-diterbutyl-4-methyl-phenol, 2-terbutyl-4-methoxy-phenol, 4-methoxy-phenol and hydroquinone.
# Reference electrode: Calomel electrode containing a saturated solution of anhydrous lithium perchlorate as bridge liquid.
# Working electrode: Vitrous carbon rotating electrode (2,500 r.p.m.)
# Counter-electrode: Platinum electrode
# Acetonitrile containing less than 0.1% of water and presenting no polarographic waves between -2.5 V and +2.5 V.
# Anhydrous lithium perchlorate containing less than 1% of water.
# A 0.1 M solution of lithium perchlorate in acetonitrile, treated and preserved on a 4 A molecular sieve.
# Amplitude of exploration: 0 to 2 V
# Speed of exploration: 10 mV/second
# Sensitivity: 1.25 μA to 50 μA
# Mean concentration: about 0.3×10^-3 mol/liter
# Between each measurement, the vitrous carbon electrode and the platinum electrode were carefully cleaned with Joseph paper.
smiles,measurement,setting,value
"c1ccc(-c2cc3ccccc3[nH]2)cc1 [2-Phenyl-indole, 2-phenyl-indole, reference compound]","coloration, GARDNER scale",[1]; 0 min,1
same,"coloration, GARDNER scale",[2]; 0 min,1
same,"coloration, GARDNER scale",[2]; 6 min,1
same,"coloration, GARDNER scale",[2]; 12 min,3 and 4 and 5
same,"coloration, GARDNER scale",[2]; 24 min,13 and 11
same,"coloration, GARDNER scale",[2]; 27 min,14 and 13
same,"coloration, GARDNER scale",[2]; 30 min,15 and 14
same,"coloration, GARDNER scale",[2]; 33 min,15 and 14
same,"coloration, GARDNER scale",[2]; 36 min,16 and 14 and 15
same,"coloration, GARDNER scale",[2]; 39 min,16 and 15
same,"coloration, GARDNER scale",[3]; 0 min,1
same,"coloration, GARDNER scale",[3]; 6 min,2
same,"coloration, GARDNER scale",[3]; 12 min,3
same,"coloration, GARDNER scale",[3]; 18 min,10
same,"coloration, GARDNER scale",[3]; 24 min,13
same,"coloration, GARDNER scale",[3]; 27 min,14
same,"coloration, GARDNER scale",[3]; 30 min,14
same,"coloration, GARDNER scale",[3]; 33 min,14
same,"coloration, GARDNER scale",[3]; 36 min,16
same,"coloration, GARDNER scale",[3]; 39 min,16
same,"coloration, GARDNER scale",[3]; 42 min,Burnt
same,colour of the flask,[4]; after the second passage,blue color tending towards green
same,colour of the flask,[4]; after the third passage,greenish-blue
same,"coloration, GARDNER scale",[5]; 0 min,1
same,"coloration, GARDNER scale",[5]; 2 min,1
same,"coloration, GARDNER scale",[5]; 4 min,2
same,"coloration, GARDNER scale",[5]; 6 min,3
same,"coloration, GARDNER scale",[5]; 8 min,8
same,"coloration, GARDNER scale",[5]; 10 min,12
same,"coloration, GARDNER scale",[5]; 12 min,14
same,"coloration, GARDNER scale",[5]; 14 min,17
same,"coloration, GARDNER scale",[6]; 0 min,2 and 1
same,"coloration, GARDNER scale",[6]; 3 min,2 and 1
same,"coloration, GARDNER scale",[6]; 6 min,5 and 4
same,"coloration, GARDNER scale",[6]; 9 min,8.5 and 10
same,"coloration, GARDNER scale",[6]; 12 min,14 and 15
same,"coloration, GARDNER scale",[6]; 15 min,16
same,Coloration of the plates GARDNER,[7]; exposure to sun 6h,3
same,Colour in GARDNER degrees,[8]; After 24 hours,6 GARDNER degrees and 8 GARDNER degrees
same,Colour in GARDNER degrees,[8]; Time 0,1 GARDNER degrees
same,Colour in GARDNER degrees,[9]; After 24 hours,17 GARDNER degrees and 13 GARDNER degrees
same,Colour in GARDNER degrees,[9]; Time 0,1.5 GARDNER degrees and 1 GARDNER degrees
"C#CCOC(=O)C1=C(C)NC(C)=C(C(=O)OCC#C)C1 [Compound 2, 2,6-Dimethyl-3,5-dicarbopropargyloxy-1,4-dihydropyridine]","coloration, GARDNER scale",[1]; 0 min,1
same,"coloration of the resins, in words",[1]; 0 to 3 minutes,considerably less
same,"coloration, GARDNER scale",[1]; 3 min,1
same,"thermostabilizing power compared to 2-phenyl-indole, in words",[1]; 210° C.,greatly superior to 2-phenyl-indole
same,"coloration, GARDNER scale",[1]; 6 min,1
same,"coloration, GARDNER scale",[1]; 9 min,4
same,"coloration, GARDNER scale",[1]; 12 min,8
same,"coloration, GARDNER scale",[1]; 15 min,12
same,"coloration, GARDNER scale",[1]; 18 min,Burnt
same,"coloration, GARDNER scale",[2]; 0 min,1
same,"coloration, GARDNER scale",[2]; 6 min,1
same,"coloration, GARDNER scale",[2]; 12 min,2
same,"coloration, GARDNER scale",[2]; 18 min,4
same,"coloration, GARDNER scale",[2]; 24 min,6
same,"coloration, GARDNER scale",[2]; 27 min,7
same,"coloration, GARDNER scale",[2]; 30 min,8.5
same,"coloration, GARDNER scale",[2]; 33 min,9
same,"coloration, GARDNER scale",[2]; 36 min,10.5
same,"coloration, GARDNER scale",[2]; 39 min,12
same,"coloration, GARDNER scale",[2]; 42 min,18
same,"coloration, GARDNER scale",[10]; 0 min,1
same,"coloration, GARDNER scale",[10]; 2 min,1
same,"coloration, GARDNER scale",[10]; 4 min,1.5
same,"coloration, GARDNER scale",[10]; 6 min,5
same,"coloration, GARDNER scale",[10]; 8 min,10
same,"coloration, GARDNER scale",[10]; 10 min,12
same,"coloration, GARDNER scale",[10]; 12 min,16
same,"coloration, GARDNER scale",[11]; 0 min,1
same,"coloration, GARDNER scale",[11]; 2 min,1
same,"coloration, GARDNER scale",[11]; 4 min,2
same,"coloration, GARDNER scale",[11]; 6 min,3
same,"coloration, GARDNER scale",[11]; 10 min,8.5
same,"coloration, GARDNER scale",[11]; 12 min,13
same,"coloration, GARDNER scale",[11]; 14 min,17
same,"coloration, GARDNER scale","[11]; column without printed time, between 6 and 10 min",4
same,"coloration, GARDNER scale",[12]; 0 min,1
same,"coloration, GARDNER scale",[12]; 2 min,1
same,"coloration, GARDNER scale",[12]; 4 min,2
same,"coloration, GARDNER scale",[12]; 6 min,4
same,"coloration, GARDNER scale",[12]; 8 min,8
same,"coloration, GARDNER scale",[12]; 10 min,10
same,"coloration, GARDNER scale",[12]; 12 min,12
same,"coloration, GARDNER scale",[12]; 14 min,13
same,Coloration of the plates GARDNER,[7]; exposure to sun 0,1
same,Coloration of the plates GARDNER,[7]; exposure to sun 6h,1
same,Coloration of the plates GARDNER,[7]; exposure to sun 12h,1.5
same,Coloration of the plates FRENCH PHARMACOPEIA,[13]; exposure to sun 0,JV6
same,Coloration of the plates FRENCH PHARMACOPEIA,[13]; exposure to sun 6h,JV6
same,Coloration of the plates FRENCH PHARMACOPEIA,[13]; exposure to sun 12h,JV5
same,Oxidation potential,[14],0.80 ± 0.01 volts
